{
  "source": "patent US8729034B2",
  "about": "“Pharmaceutical composition having virucidal and spermicidal activity” (priority 2007, dated 2014)",
  "tested_on": "Salmonella typhimurium TA100",
  "assay": "Bacterial reverse mutation assay (MUTA-CHROMOPLATE kit)",
  "source_text": "Ac-B was examined for its ability to produce mutations/revert mutations in a bacterial reverse mutation assay using amino acid-requiring strain of Salmonella typhimurium (S. typhimurium) TA100 and the result was compared with a known mutagen (Na-azide). A commercial kit (The MUTA-CHROMOPLATE) from M/s Environmental Biodetection Products Inc. Ontario, Canada, was used. Suspensions of bacterial cells were exposed to the test substance in the presence and in the absence of an exogenous metabolic activation system. After 5 days of incubation, revertant colonies were detected by the change of colour from blue to yellow on solvent control plates. All yellow, partially yellow or turbid wells were scored as positive, while all purple wells were scored as negative. Number of positive wells for each plate was recorded, their number was counted and compared to that of spontaneous revertant colonies. The “Background” (i.e. no test material added) plate was used as reference for the level of spontaneous or background mutation of the assay organism. The statistical difference was determined using a table provided with the kit.\nScore of mutagenicity as per the set criteria of Muta-Chromoplate test kit.",
  "data": [
    {"substance": "Acaciaside-B [Ac-B]", "values": [
      {"measurement": "Overall mutagenicity result", "setting": "Ames Test", "value": "non-mutagenic"},
      {"measurement": "No. of '+' wells (Muta-Chromoplate score)", "setting": "Background = 20, Blank = 0", "value": 18}
    ]}
  ]
}
